Consider 2 compounds from patent publication US20160101076A1, “Use of Sumoylation Inhibitors for Treating Cancer” (priority 2013, published 2016).

The test system of assay [1] is cells derived from a primary basal cancer. Nature of the assay: CD44 Western blot and CD44+/CD24-/low FACS in cells from a primary basal breast cancer. It counts as cell-based, human. The settings on record: for CD44 expression by Western blot: cells derived from a primary basal cancer, FIG. 6A; for CD44+/hi/CD24-/low CSC population: cells harvested from primary basal breast tumor refractory to chemotherapy, treated in vitro, FACS FIG. 6A. The method, then:
In addition, cells from a primary basal breast cancer were treated in vitro in parallel. The cancer was from a patient with locally advanced breast cancer that was refractory to conventional chemotherapy. Remarkably, treatment with GA or AA cleared the CD44^+/hi/CD24^−/low CSC population from the cells harvested from the primary tumor (FIG. 6A, last panel). By contrast, GA/AA treatment of MCF-10A cells, a normal breast cell line model, had no effect on CD44 expression and had no effect on the percentage of cells expressing stem cell markers.
(§1) The human breast cancer cell lines (MCF-7, SKBR-3, BT-20, BT-549, MCF-10A) were obtained from American Type Culture Collection. sKD-C cells were subcloned from parental MCF-7 cells with stable knockdown of TFAP2C as described (Cyr et al., 2014). ER<-positive tumors and the basal cancer tumor were obtained from surgical resection specimens. Cell suspensions were prepared with gentle collagenase/hyaluronidase (Stemcells) (Ponti et al., 2005). A new cell line was established from the basal tumor cells, called IOWA-1T (manuscript in preparation).
(§2) Western blots were performed as previously described (Cyr et al., 2014; Kulak et al., 2013). For immunoprecipitations anti-TFAP2A, anti-GFP antibody (Life Technologies) or IgG (#sc-2025, Santa Cruz Biotechnology) were cross-linked with Dynabeads protein A (Life Technologies). MCF7 protein was incubated with Dynabeads protein A-Abs complex, protein complexes were washed with DPBS (Gibco) with 0.01% Tween (Research Products International Corp.), and eluted with SDS loading buffer.
(§3) Cells were plated ([…]/10 cm2) and treated with 10 μM gingolic or anacardic acid (Sigma) for 2-4 days and collected for qPCR, Western blot and FACS analysis.
(§4) FACS analysis was performed as previously described (Roederer and Hardy, 2001).
For orientation: A western blot detects proteins with antibodies after separation by electrophoresis.

The subject of the next assay is BT-549 cells. Nature of the assay: CD44 Western blot and CD44+/CD24-/low FACS in BT-549 cells. Format: cell-based, human. The settings on record: for ability to repress CD44 expression with knockdown of TFAP2A: BT549 cells, TFAP2A siRNA, Western blot FIG. 6C; for CD44+/CD24-/low population by FACS analysis / CD44 expression by Western blot: BT-549 cells, FIG. 6A, 10 μM, 2-4 days. The protocol: as §1, §2, §3, §4

The subject of the next assay is MCF-10A cells. Nature of the assay: CD44 expression and stem cell markers in normal breast cell line MCF-10A. The settings on record: MCF-10A normal breast cell line. Format: cell-based, human. The protocol:
as §1, §2, §3, §4

Another assay has as its system BT20 xenografts. The assay is described as follows: BT20 xenografts from cells pretreated before inoculation. The settings on record: BT20 cells pretreated for 48 hours prior to inoculation in nude mice; FIG. 8A. Format: in vivo. The source says:
FIGS. 8A-8D. SUMO Inhibitors Repressed Outgrowth of Xenografts. FIG. 8A. […] FIG. 8B. Tumor-free survival of nude mice (n=5 per group) inoculated with BT20 cells with animals gavaged with AA vs. vehicle. FIG. 8C. IOWA-1T cells were pre-treated with anacardic acid (AA) or vehicle and mice were followed until requiring euthanasia due to tumor size (Overall Survival). […] FIG. 8D. Nude mice were inoculated with 1×10^6, 5×10^5, or 2.5×10^5 IOWA-1T cells and animals were gavaged with either vehicle or AA; vehicle-gavaged mice developed tumors in 5, 10 and 12 days, respectively.
To address the effects of GA and AA on tumor initiation, BT20 cells were pretreated with GA or AA compared to vehicle prior to inoculation of xenografts in nude mice. As noted in FIG. 8A, pretreatment of the cells repressed the formation of tumor xenografts, whereas, vehicle treated cells formed xenografts with a median time of 8 weeks. […] We created a breast carcinoma cell line (IOWA-1T) from the basal tumor-derived cells used in FIG. 6A. The IOWA-1T cell line rapidly forms locally advanced tumors in nude mice. Identical experiments using the IOWA-1T basal cell line confirmed that either pre-treating the cancer cells or gavaging animals with AA repressed tumor initiation of xenografts (FIGS. 8C and 8D). […]

Consider `CCCCCC/C=C\CCCCCCCc1cccc(O)c1C(=O)O` [GA, (Z)-6-(Pentadec-8-enyl)-2-hydroxybenzoic acid], for which, in assay [1], the “CD44 expression by Western blot” value is “inhibited” and the “CD44+/hi/CD24-/low CSC population” value is on record as “cleared”. In the assay with BT-549 cells, the “ability to repress CD44 expression with knockdown of TFAP2A” value is given as “completely eliminated”, the “CD44+/CD24-/low population by FACS analysis” value is listed as “significantly reduced” and the “CD44 expression by Western blot” value is reported as “inhibited”. In addition, in the assay with MCF-10A cells, the CD44 expression entry is listed as “no effect” and the “percentage of cells expressing stem cell markers” value is given as “no effect”. In addition, the “formation of tumor xenografts (tumor free survival)” value with BT20 xenografts was “repressed”.

`CCCCCCCCCCCCCCCc1cccc(O)c1C(=O)O` [AA, Anacardic acid (C15:0)]: in assay [1], the “CD44 expression by Western blot” value was “inhibited” and the “CD44+/hi/CD24-/low CSC population” value is on record as “cleared”. In addition, in the assay with BT-549 cells, the “ability to repress CD44 expression with knockdown of TFAP2A” value is “completely eliminated”, the “CD44+/CD24-/low population by FACS analysis” value was “significantly reduced” and the “CD44 expression by Western blot” value is “inhibited”. In the assay with MCF-10A cells, the CD44 expression result is “no effect” and the “percentage of cells expressing stem cell markers” value is “no effect”. Besides, the “formation of tumor xenografts (tumor free survival)” value in the assay with BT20 xenografts is recorded as “repressed”.
